Assay results reported in the NIST ThermoML archive (doi:10.1021/je034177v).

Experiment: molar heat capacity at constant pressure; xn = mol fraction of the nth substance listed
Conditions: 101 kPa, Liquid, Small sample (50 mg) DSC

ClCCCCCCl [1,5-dichloropentane] + CCCCCCCCCCCC
molar heat capacity at constant pressure [J/K/mol]
Conditions | 283.15 K | 288.15 K | 293.15 K | 298.15 K | 303.15 K | 308.15 K | 313.15 K | 318.15 K | 323.15 K
x1 = 0.05237 | 359.49 | 361.46 | 363.6 | 365.89 | 368.28 | 370.79 | 373.41 | 376.07 | 378.83
x1 = 0.1014 | 351.13 | 353.16 | 355.31 | 357.53 | 359.81 | 362.28 | 364.84 | 367.48 | 370.16
x1 = 0.2008 | 334.84 | 336.79 | 338.81 | 340.93 | 343.08 | 345.47 | 347.87 | 350.35 | 352.88
x1 = 0.3039 | 318.47 | 320.33 | 322.17 | 324.17 | 326.18 | 328.38 | 330.63 | 332.93 | 335.27
x1 = 0.3945 | 304.32 | 305.98 | 307.85 | 309.6 | 311.52 | 313.55 | 315.68 | 317.86 | 320.07
x1 = 0.4983 | 288.13 | 289.64 | 291.34 | 293.02 | 294.78 | 296.69 | 298.58 | 300.38 | 302.59
x1 = 0.6014 | 271.74 | 273.2 | 274.79 | 276.35 | 277.97 | 279.71 | 281.49 | 283.32 | 285.18
x1 = 0.6987 | 256.4 | 257.78 | 259.23 | 260.76 | 262.21 | 263.83 | 265.47 | 267.13 | 268.85
x1 = 0.7975 | 240.83 | 242.08 | 243.45 | 244.78 | 246.18 | 247.69 | 249.17 | 250.73 | 252.27
x1 = 0.9021 | 224.47 | 225.7 | 226.92 | 228.16 | 229.39 | 230.74 | 232.08 | 233.47 | 234.85
x1 = 0.9497 | 217.25 | 218.41 | 219.54 | 220.73 | 221.9 | 223.14 | 224.4 | 225.7 | 227.02
x1 = 1 | 209.65 | 210.73 | 211.89 | 212.94 | 214.06 | 215.21 | 216.38 | 217.56 | 218.76
